We go through eight compounds from PubChem BioAssay (NCI).

What all share (experiment): NCI-60 cell line screen, 48 h
In assay [1] the test system is TK-10 renal.
In assay [2] the test system is BT-549 breast.
For assay [3], the system named is SF-268 CNS.
For assay [4], the system named is HL-60(TB) leukemia.
The subject of assay [5] is OVCAR-3 ovarian.
Assay [6] relates to MDA-N.
Assay [7] relates to SK-MEL-2 melanoma.
Assay [8] relates to UACC-62 melanoma.
Assay [9] deals with SR leukemia.
The test system of assay [10] is ACHN renal.
For assay [11], the system named is NCI-H23 lung.
Assay [12] relates to HCT-116 colon.
The subject of assay [13] is NCI-H522 lung.
In assay [14] the test system is KM12 colon.
Assay [15] has as its system SF-539 CNS.
Assay [16] deals with MCF7 breast.
Assay [17] concerns A498 renal.
In assay [18] the test system is OVCAR-4 ovarian.
In assay [19] the test system is NCI-H226 lung.

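96-well plates; 48 h exposure; 5 concentrations. Endpoints by linear interpolation between flanking doses. Not reached: highest tested concentration assigned. TGI: total growth inhibition.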 A value given as a limit tells only on which side of the number the result lay.

As to `COC(=O)CC(C#N)(OP1(=O)OC(c2ccccc2)C(C)N1C)c1ccccc1` (stereo not given), the TGI in [1] is > 100 µM; in assay [2], > 100 µM; in [3] it was > 100 µM; in assay [4], 58 µM; in assay [5], 42.6 µM; in [6], 75.4 µM. Moreover, the TGI in [7] was found to be 95 µM; in assay [8], 56.9 µM; in assay [9], 74.8 µM; in assay [10] it was 59.8 µM; in [11], 97.9 µM; in assay [12], 52.4 µM. The TGI in assay [13] was > 100 µM; in assay [14], 48.8 µM; in [15], > 100 µM; in [16] it was > 100 µM; in assay [17], > 100 µM.
As to `CC(C)(C)OC(=O)N1CCc2[nH][nH]c(=O)c2C1`, the TGI in assay [18], in assay [1], in [19], in [2], in [3] and in [4] was > 100 µM throughout. In addition, the TGI in assay [5], in [6], in assay [8], in assay [9], in assay [11] and in [12] was > 100 µM throughout. Also, the TGI in assay [13], in assay [14], in assay [15], in assay [16] and in assay [17] was > 100 µM throughout.
For `CC(C)C(=O)[C@@]1(C)SC[C@H]2CCN=C21`, the TGI in [18], in assay [1], in assay [19], in assay [2], in [4] and in assay [5] was > 100 µM throughout. For the same compound, the TGI in assay [6], in assay [8], in [9], in assay [10], in [11] and in assay [12] was > 100 µM in each case. Also, the TGI in assay [13], in assay [14], in [15], in assay [16] and in [17] was > 100 µM in each case.
For the compound `CN=c1nc2sc3c(c2c(NC(=S)NC)s1)CCCC3`, the TGI in assay [18] was > 100 µM; in assay [1] it was > 100 µM; in assay [19], > 100 µM; in assay [2], > 100 µM; in [3] it was 87.5 µM; in [4] it was > 100 µM. In addition, the TGI in assay [5], in [6], in assay [7], in assay [8], in assay [9] and in assay [10] was > 100 µM throughout. For the same compound, the TGI in [11], in assay [12], in [13], in [14], in assay [16] and in assay [17] was > 100 µM in each case.
Turning to `O=C1C2CC=CCC2C(=O)N1n1c(Cc2ccc(Cl)cc2)n[nH]c1=O` (stereo not given), the TGI in assay [18], in assay [1], in assay [19], in [2], in assay [3] and in assay [4] was > 100 µM each time. Besides, the TGI in assay [5], in assay [6], in assay [7], in assay [8], in [9] and in assay [10] was > 100 µM throughout. The TGI in [11], in assay [12], in assay [13], in [14], in assay [16] and in assay [17] was > 100 µM in each case.
Consider `CCCC[C@@H]1CCN2C[C@@H](O)[C@@H](O)[C@@H]2[C@H]1O`, for which the TGI in assay [18], in [19], in assay [2], in [3], in assay [4] and in assay [5] was > 100 µM each time. Also, the TGI in assay [6], in [7], in assay [8], in [9], in assay [10] and in assay [11] was > 100 µM each time. Further, the TGI in assay [12], in [13], in assay [14], in assay [15], in assay [16] and in [17] was > 100 µM in each case.
In the case of `N#Cc1nc2ccccc2nc1N1CCN(c2ccc([N+](=O)[O-])cc2)CC1`, the TGI in [18], in assay [1], in [19], in assay [2], in [3] and in assay [4] was > 100 µM each time. Further, the TGI in assay [6], in assay [7], in [8], in [9], in [10] and in assay [11] was > 100 µM each time. For the same compound, the TGI in assay [12], in assay [13], in assay [14], in assay [16] and in [17] was > 100 µM throughout.
Turning to `Nc1ccc(-c2nc3cc(F)ccc3s2)cc1Cl`, the TGI in assay [18] is > 100 µM; in assay [1] it was 0.176 µM; in assay [19] it was 5.04 µM; in [2], > 63.2 µM; in [3], > 100 µM; in assay [4] it was > 100 µM. Also, the TGI in assay [5] was 45.6 µM; in assay [6], > 100 µM; in assay [7] it was > 100 µM; in assay [8], > 100 µM; in assay [9] it was 9.4 µM; in assay [10], > 85 µM. The TGI in [12] was > 100 µM; in assay [13], > 100 µM; in assay [14], > 100 µM; in [15] it was 45.1 µM; in assay [16], 1.35 µM; in assay [17], > 39.3 µM.
